{"source": "paper PMC12171880", "about": "“Selectivity and Safety Characterization of a Xanthine–Imidazothiazole Lead Structure: a Novel Tryptophan Hydroxylase Inhibitor of Peripheral Serotonin Synthesis” (ACS Pharmacology & Translational Science, 2025)", "key": {"[1]": {"tested_on": "MC38 colorectal carcinoma model", "conditions": "mouse colorectal carcinoma; previous study; cited from earlier work"}, "Sprague–Dawley rats": {"tested_on": "Sprague–Dawley rats", "experiment": "Dose-range finding study in rats, clinical chemistry", "assay_type": "in vivo, rat", "conditions": "for ALT (GPT) / Albumin / Albumin/ globulin ratio / Alkaline phosphatase / Bile acids / Bilirubin total / Calcium / Chloride / Cholesterol / Creatine kinase / Creatinine / GLDH / Globulin / Glucose / Inorganic phosphate / Potassium / Sodium / Total protein / Triglycerides / Urea (BUN): day 8", "description": "TPT-004 was formulated in 0.5% (w/v) CMC-Na in water and administered by oral gavage (PO) twice daily (b.i.d.) with a 12 h interval to the treatment groups (3 male and 3 female Sprague–Dawley rats each) for 8 days (15 successive applications). Rats were dosed with 10, 45, and 200 mg/kg, i.e., daily doses of 20, 90, and 400 mg/kg. In addition, a control group was dosed at the same frequency as the vehicle (0.5% CMC-Na).\nA blood sample of 100 μL was obtained from each rat by puncturing one of the lateral tail veins under short isoflurane anesthesia. Blood was collected in tubes containing lithium heparin and gently mixed. After centrifugation (10 min at 3000g, 4 °C), plasma was separated and stored at −20 °C until LC-MS analysis. In addition, on day 8, the rats were exsanguinated by cardiac puncture under isoflurane anesthesia. A volume of 100 μL of blood (K3-EDTA) was used for immediate cell blood count, while the rest of the blood was mixed with lithium heparin and centrifuged to generate plasma for clinical chemistry analysis."}, "mice": {"tested_on": "mice", "conditions": "14 days repeated oral treatment, 10 or 50 mg/kg BID, previous study; cited from earlier work"}, "[2]": {"tested_on": "97 targets (receptors, enzymes, and ion channels)", "experiment": "Eurofins Diversity Panel, 97 binding, enzyme and uptake assays", "conditions": "10 μM", "description": "TPT-004 was evaluated at a concentration of 10 μM in a total of 97 binding, enzyme, and uptake assays (Diversity Panel) by Eurofins Cerep (Celle l’Evescault, France). Compound binding was calculated as % inhibition of the binding of a ligand specific to each target. The compound enzyme inhibition effect was calculated as percentage inhibition of the control enzyme activity. Results showing an inhibition (or stimulation for assays run under basal conditions) of >50% are considered to represent significant effects of the test compounds. Results showing an inhibition (or stimulation) between 25% and 50% are indicative of weak to moderate effects. Results showing an inhibition (or stimulation) lower than 25% are not considered significant and are mostly attributable to variability in the signal around the control level. […] In each experiment, and if applicable, the respective reference compound was tested concurrently with TPT-004, and the data were compared with historical values determined at Eurofins. […]\nThe results are expressed as a percent of control-specific binding: measured specific binding/control specific binding×100 and as a percent inhibition of control-specific binding: 100−(measured specific binding/control specific binding×100) obtained in the presence of TPT-004. […]"}}, "data": [{"smiles": "CCn1c(=O)[nH]c(=O)c2c1nc(Cc1cn3cc(C)sc3n1)n2CC1COC1", "note": "[TPT-004]", "values": [{"measurement": "dose needed to achieve the therapeutic effects", "setting": "[1]", "value": 50, "unit": "mg/kg BID"}, {"measurement": "ALT (GPT)", "setting": "Sprague–Dawley rats; 10 mg/kg PO BID", "value": 49, "unit": "U/L"}, {"measurement": "Albumin", "setting": "Sprague–Dawley rats; 10 mg/kg PO BID", "value": 31, "unit": "g/L"}, {"measurement": "Albumin/ globulin ratio", "setting": "Sprague–Dawley rats; 10 mg/kg PO BID", "value": 1.33}, {"measurement": "Alkaline phosphatase", "setting": "Sprague–Dawley rats; 10 mg/kg PO BID", "value": 402, "unit": "U/L"}, {"measurement": "Bile acids", "setting": "Sprague–Dawley rats; 10 mg/kg PO BID", "value": 6.3, "unit": "µmol/L"}, {"measurement": "Bilirubin total", "setting": "Sprague–Dawley rats; 10 mg/kg PO BID", "value": 1.7, "unit": "µmol/L"}, {"measurement": "Calcium", "setting": "Sprague–Dawley rats; 10 mg/kg PO BID", "value": 2.6, "unit": "mmol/L"}, {"measurement": "Chloride", "setting": "Sprague–Dawley rats; 10 mg/kg PO BID", "value": 101, "unit": "mmol/L"}, {"measurement": "Cholesterol", "setting": "Sprague–Dawley rats; 10 mg/kg PO BID", "value": 2.25, "unit": "mmol/L"}, {"measurement": "Creatine kinase", "setting": "Sprague–Dawley rats; 10 mg/kg PO BID", "value": 406, "unit": "U/L"}, {"measurement": "Creatinine", "setting": "Sprague–Dawley rats; 10 mg/kg PO BID", "value": 24, "unit": "µmol/L"}, {"measurement": "GLDH", "setting": "Sprague–Dawley rats; 10 mg/kg PO BID", "value": 7, "unit": "U/L"}, {"measurement": "Globulin", "setting": "Sprague–Dawley rats; 10 mg/kg PO BID", "value": 23, "unit": "g/L"}, {"measurement": "Glucose", "setting": "Sprague–Dawley rats; 10 mg/kg PO BID", "value": 11.2, "unit": "mmol/L"}, {"measurement": "Inorganic phosphate", "setting": "Sprague–Dawley rats; 10 mg/kg PO BID", "value": 2.3, "unit": "mmol/L"}, {"measurement": "Potassium", "setting": "Sprague–Dawley rats; 10 mg/kg PO BID", "value": 4.7, "unit": "mmol/L"}, {"measurement": "Sodium", "setting": "Sprague–Dawley rats; 10 mg/kg PO BID", "value": 143, "unit": "mmol/L"}, {"measurement": "Total protein", "setting": "Sprague–Dawley rats; 10 mg/kg PO BID", "value": 54, "unit": "g/L"}, {"measurement": "Triglycerides", "setting": "Sprague–Dawley rats; 10 mg/kg PO BID", "value": 1.2, "unit": "mmol/L"}, {"measurement": "Urea (BUN)", "setting": "Sprague–Dawley rats; 10 mg/kg PO BID", "value": 6.4, "unit": "mmol/L"}, {"measurement": "ALT (GPT)", "setting": "Sprague–Dawley rats; 45 mg/kg PO BID", "value": 52, "unit": "U/L"}, {"measurement": "Albumin", "setting": "Sprague–Dawley rats; 45 mg/kg PO BID", "value": 30, "unit": "g/L"}, {"measurement": "Albumin/ globulin ratio", "setting": "Sprague–Dawley rats; 45 mg/kg PO BID", "value": 1.34}, {"measurement": "Alkaline phosphatase", "setting": "Sprague–Dawley rats; 45 mg/kg PO BID", "value": 434, "unit": "U/L"}, {"measurement": "Bile acids", "setting": "Sprague–Dawley rats; 45 mg/kg PO BID", "value": 16.6, "unit": "µmol/L"}, {"measurement": "Bilirubin total", "setting": "Sprague–Dawley rats; 45 mg/kg PO BID", "value": 1.7, "unit": "µmol/L"}, {"measurement": "Calcium", "setting": "Sprague–Dawley rats; 45 mg/kg PO BID", "value": 2.7, "unit": "mmol/L"}, {"measurement": "Chloride", "setting": "Sprague–Dawley rats; 45 mg/kg PO BID", "value": 101, "unit": "mmol/L"}, {"measurement": "Cholesterol", "setting": "Sprague–Dawley rats; 45 mg/kg PO BID", "value": 2.5, "unit": "mmol/L"}, {"measurement": "Creatine kinase", "setting": "Sprague–Dawley rats; 45 mg/kg PO BID", "value": 415, "unit": "U/L"}, {"measurement": "Creatinine", "setting": "Sprague–Dawley rats; 45 mg/kg PO BID", "value": 26, "unit": "µmol/L"}, {"measurement": "GLDH", "setting": "Sprague–Dawley rats; 45 mg/kg PO BID", "value": 6, "unit": "U/L"}, {"measurement": "Globulin", "setting": "Sprague–Dawley rats; 45 mg/kg PO BID", "value": 23, "unit": "g/L"}, {"measurement": "Glucose", "setting": "Sprague–Dawley rats; 45 mg/kg PO BID", "value": 12.3, "unit": "mmol/L"}, {"measurement": "Inorganic phosphate", "setting": "Sprague–Dawley rats; 45 mg/kg PO BID", "value": 2.4, "unit": "mmol/L"}, {"measurement": "Potassium", "setting": "Sprague–Dawley rats; 45 mg/kg PO BID", "value": 4.7, "unit": "mmol/L"}, {"measurement": "Sodium", "setting": "Sprague–Dawley rats; 45 mg/kg PO BID", "value": 142, "unit": "mmol/L"}, {"measurement": "Total protein", "setting": "Sprague–Dawley rats; 45 mg/kg PO BID", "value": 53, "unit": "g/L"}, {"measurement": "Triglycerides", "setting": "Sprague–Dawley rats; 45 mg/kg PO BID", "value": 1.7, "unit": "mmol/L"}, {"measurement": "Urea (BUN)", "setting": "Sprague–Dawley rats; 45 mg/kg PO BID", "value": 6.0, "unit": "mmol/L"}, {"measurement": "ALT (GPT)", "setting": "Sprague–Dawley rats; 200 mg/kg PO BID", "value": 67, "unit": "U/L"}, {"measurement": "Albumin", "setting": "Sprague–Dawley rats; 200 mg/kg PO BID", "value": 30, "unit": "g/L"}, {"measurement": "Albumin/ globulin ratio", "setting": "Sprague–Dawley rats; 200 mg/kg PO BID", "value": 1.32}, {"measurement": "Alkaline phosphatase", "setting": "Sprague–Dawley rats; 200 mg/kg PO BID", "value": 313, "unit": "U/L"}, {"measurement": "Bile acids", "setting": "Sprague–Dawley rats; 200 mg/kg PO BID", "value": 20.4, "unit": "µmol/L"}, {"measurement": "Bilirubin total", "setting": "Sprague–Dawley rats; 200 mg/kg PO BID", "value": 1.7, "unit": "µmol/L"}, {"measurement": "Calcium", "setting": "Sprague–Dawley rats; 200 mg/kg PO BID", "value": 2.6, "unit": "mmol/L"}, {"measurement": "Chloride", "setting": "Sprague–Dawley rats; 200 mg/kg PO BID", "value": 101, "unit": "mmol/L"}, {"measurement": "Cholesterol", "setting": "Sprague–Dawley rats; 200 mg/kg PO BID", "value": 2.6, "unit": "mmol/L"}, {"measurement": "Creatine kinase", "setting": "Sprague–Dawley rats; 200 mg/kg PO BID", "value": 321, "unit": "U/L"}, {"measurement": "Creatinine", "setting": "Sprague–Dawley rats; 200 mg/kg PO BID", "value": 24, "unit": "µmol/L"}, {"measurement": "GLDH", "setting": "Sprague–Dawley rats; 200 mg/kg PO BID", "value": 7, "unit": "U/L"}, {"measurement": "Globulin", "setting": "Sprague–Dawley rats; 200 mg/kg PO BID", "value": 23, "unit": "g/L"}, {"measurement": "Glucose", "setting": "Sprague–Dawley rats; 200 mg/kg PO BID", "value": 13.5, "unit": "mmol/L"}, {"measurement": "Inorganic phosphate", "setting": "Sprague–Dawley rats; 200 mg/kg PO BID", "value": 2.4, "unit": "mmol/L"}, {"measurement": "Potassium", "setting": "Sprague–Dawley rats; 200 mg/kg PO BID", "value": 4.9, "unit": "mmol/L"}, {"measurement": "Sodium", "setting": "Sprague–Dawley rats; 200 mg/kg PO BID", "value": 143, "unit": "mmol/L"}, {"measurement": "Total protein", "setting": "Sprague–Dawley rats; 200 mg/kg PO BID", "value": 53, "unit": "g/L"}, {"measurement": "Triglycerides", "setting": "Sprague–Dawley rats; 200 mg/kg PO BID", "value": 1.4, "unit": "mmol/L"}, {"measurement": "Urea (BUN)", "setting": "Sprague–Dawley rats; 200 mg/kg PO BID", "value": 7.0, "unit": "mmol/L"}, {"measurement": "clinical chemistry parameters, overall", "setting": "Sprague–Dawley rats; 10, 45, or 200 mg/kg BID PO, 8 days", "value": "no relevant difference"}, {"measurement": "neuropsychiatric effects in behavioral tests", "setting": "mice", "value": "no neuropsychiatric effects were observed"}, {"measurement": "significant effects (more than 50% inhibition or stimulation) among 97 targets", "setting": "[2]", "value": "a significant effect was observed only for the rat homolog of TH"}]}]}
